Reference: patent US20100137315A1, “Sphingosine Kinase Inhibitors and Methods of Their Use” (APOGEE BIOTECHNOLOGY CORPORATION, priority 2005, published 2010)

What follows are compounds tested against T1, recombinant human SK (Homo sapiens, UniProt Q9NYA1) (assay: Inhibition of recombinant human SK, LC/MS/MS assay). Settings: 6 μg/ml compound.
T1 construct: glutathione-S-transferase (GST) (N); made in house; host or cells: bacteria (pGEX vector)
T1 sequence (Q9NYA1 whole entry): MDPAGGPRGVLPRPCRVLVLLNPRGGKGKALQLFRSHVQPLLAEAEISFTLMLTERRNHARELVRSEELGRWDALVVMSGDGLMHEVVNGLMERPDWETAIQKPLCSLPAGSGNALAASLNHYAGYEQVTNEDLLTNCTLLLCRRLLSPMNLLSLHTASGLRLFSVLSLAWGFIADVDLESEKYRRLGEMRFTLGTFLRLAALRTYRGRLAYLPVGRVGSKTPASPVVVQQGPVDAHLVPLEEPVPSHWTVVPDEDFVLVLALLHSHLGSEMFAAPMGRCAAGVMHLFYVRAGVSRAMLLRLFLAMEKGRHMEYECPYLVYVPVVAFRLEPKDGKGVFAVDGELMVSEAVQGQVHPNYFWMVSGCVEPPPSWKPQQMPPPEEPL
Assay type: biochemical
Description: An assay for identifying inhibitors of recombinant human SK has been established (French et al., 2003, Cancer Res 63: 5962). cDNA for human SK was subcloned into a pGEX bacterial expression vector, which results in expression of the enzyme as a fusion protein with glutathione-S-transferase, and the fusion protein is then purified on a column of immobilized glutathione. SK activity is measured by incubation of the recombinant SK with [^3H]sphingosine and 1 mM ATP under defined conditions, followed by extraction of the assay mixture with chloroform:methanol under basic conditions. […] Radioactivity in aliquots of the aqueous phase is then quantified as a measure of [^3H]S1P formation. There is a low background level of partitioning of [^3H]sphingosine into the aqueous phase, and addition of the recombinant SK greatly increases the formation of [^3H]S1P.
In an alternate assay procedure, the recombinant human SK was incubated with unlabeled sphingosine and ATP as described above. After 30 minutes, the reactions were terminated by the addition of acetonitrile to directly extract the newly synthesized S1P. The amount of S1P in the samples is then quantified as follows. C17 base D-erythro-sphingosine and C17 S1P are used as internal standards for sphingosine and S1P, respectively. These seventeen-carbon fatty acid-linked sphingolipids are not naturally produced, making these analogs excellent standards. The lipids are then fractionation by High-Performance Liquid Chromatography using a C8-reverse phase column eluted with 1 mM methanolic ammonium formate/2 mM aqueous ammonium formate. A Finnigan LCQ Classic LC-MS/MS is used in the multiple reaction monitoring positive ionization mode to acquire ions at m/z of 300 (precursor ion)→282 (product ion) for sphingosine and 380→264 for S1P. Calibration curves are generated by plotting the peak area ratios of the synthetic standards for each sphingolipid, and used to determine the normalized amounts of sphingosine and S1P in the samples.
Each Compound of this invention was tested for its ability to inhibit recombinant SK using the LC/MS/MS assay described above. Typically, the Compounds were individually dissolved in dimethylsulfoxide and tested at a final concentration of 6 micrograms/ml.
An inhibition at 6 µg/mL of 46% was found for O=C(NCCCN1CCCC1)c1nc(-c2ccc(Cl)cc2)cs1 [Compound 59, 4-(4-Chloro-phenyl)-thiazole-2-carboxylic Acid (3-pyrrolidin-1-yl-propyl)-amide] in this work. An inhibition at 6 µg/mL of 6% was found for CCCC(=O)Oc1ccc(C=CC(=O)Nc2nc(-c3ccc(Br)cc3)cs2)cc1OC [Compound 20, Butyric acid 4-{2-[4-(4-bromo-phenyl)-thiazol-2-ylcarbamoyl]-vinyl}-2-methoxy-phenyl ester] in this work. An inhibition at 6 µg/mL of 86% was found for O=C(NCc1ccc(C(F)(F)F)cc1)c1nc(-c2ccc(Cl)cc2)cs1 [Compound 58, 4-(4-Chloro-phenyl)-thiazole-2-carboxylic Acid 4-trifluoromethyl-benzylamide] in this work. An inhibition at 6 µg/mL of 61% was found for O=C(Nc1nc(-c2ccc(Cl)cc2)cs1)c1ccc(C(F)(F)F)cc1F [Compound 66, N-[4-(4-Chloro-phenyl)-thiazol-2-yl]-2-fluoro-4-trifluoromethyl-benzamide] in this work. An inhibition at 6 µg/mL of 80% was found for CN1CCN(NC(=O)c2nc(-c3ccc(Cl)cc3)cs2)CC1 [Compound 46, 4-(4-Chloro-phenyl)-thiazole-2-carboxylic Acid (4-methyl-piperazin-1-yl)-amide] in this work. An inhibition at 6 µg/mL of 23% was found for O=C(NCc1ccc(Cl)c(C(F)(F)F)c1)c1nc(-c2ccc(Cl)cc2)cs1 [Compound 37, 4-(4-Chloro-phenyl)-thiazole-2-carboxylic acid 4-chloro-3-trifluoromethyl-benzylamide] in this work. An inhibition at 6 µg/mL of 14% was found for O=C(NCc1cc(F)cc(F)c1)c1nc(-c2ccc(Cl)cc2)cs1 [Compound 36, 4-(4-Chloro-phenyl)-thiazole-2-carboxylic acid 3,5-difluoro-benzylamide] in this work. An inhibition at 6 µg/mL of 59% was found for O=C(NCc1cccc(OC(F)(F)F)c1)c1nc(-c2ccc(Cl)cc2)cs1 [Compound 43, 4-(4-Chloro-phenyl)-thiazole-2-carboxylic acid 3-trifluoromethoxy-benzylamide] in this work. An inhibition at 6 µg/mL of 54% was found for O=C(Cc1ccc(F)cc1)Nc1nc(-c2ccc(Cl)cc2)cs1 [Compound 70, N-[4-(4-Chloro-phenyl)-thiazol-2-yl]-2-(4-fluoro-phenyl)-acetamide] in this work. An inhibition at 6 µg/mL of 21% was found for O=C(CCc1ccc(F)cc1F)Nc1nc(-c2ccc(Cl)cc2)cs1 [Compound 47, N-[4-(4-Chloro-phenyl)-thiazol-2-yl]-3-(2,4-difluoro-phenyl)-propionamide] in this work. An inhibition at 6 µg/mL of 0% was found for CCCC(=O)Oc1ccc(CCC(=O)Nc2nc(-c3ccc(Cl)cc3)cs2)cc1OC(=O)CCC [Compound 26, Butyric acid 2-butyryloxy-4-{2-[4-(4-chloro-phenyl)-thiazol-2-ylcarbamoyl]-ethyl}-phenyl ester] in this work. An inhibition at 6 µg/mL of 25% was found for O=C(NCc1ccc(Oc2ccccc2)cc1)c1nc(-c2ccc(Cl)cc2)cs1 [Compound 54, 4-(4-Chloro-phenyl)-thiazole-2-carboxylic Acid 4-phenoxy-benzylamide] in this work. An inhibition at 6 µg/mL of 69% was found for O=C(NCc1ccc(F)c(Cl)c1)c1nc(-c2ccc(Cl)cc2)cs1 [Compound 39, 4-(4-Chloro-phenyl)-thiazole-2-carboxylic acid 3-chloro-4-fluoro-benzylamide] in this work. An inhibition at 6 µg/mL of 78% was found for O=C(NCc1ccc(OC(F)(F)F)cc1)c1nc(-c2ccc(Cl)cc2)cs1 [Compound 52, 4-(4-Chloro-phenyl)-thiazole-2-carboxylic Acid 4-trifluoromethoxy-benzylamide] in this work. An inhibition at 6 µg/mL of 67% was found for O=C(NCc1ccc(C(F)(F)F)cc1F)c1nc(-c2ccc(Cl)cc2)cs1 [Compound 49, 4-(4-Chloro-phenyl)-thiazole-2-carboxylic Acid 2-fluoro-4-trifluoromethyl-benzylamide] in this work. An inhibition at 6 µg/mL of 36% was found for CSc1ccc(CNC(=O)c2nc(-c3ccc(Cl)cc3)cs2)cc1 [Compound 51, 4-(4-Chloro-phenyl)-thiazole-2-carboxylic Acid 4-methylsulfanyl-benzylamide] in this work. An inhibition at 6 µg/mL of 42% was found for CN1CCCC1CCNC(=O)c1nc(-c2ccc(Cl)cc2)cs1 (stereo not shown) [Compound 45, 4-(4-Chloro-phenyl)-thiazole-2-carboxylic acid [2-(1-methyl-pyrrolidin-2-yl)-ethyl]-amide] in this work. An inhibition at 6 µg/mL of 87% was found for O=C(NCc1cc(C(F)(F)F)cc(C(F)(F)F)c1)c1nc(-c2ccc(Cl)cc2)cs1 [Compound 60, 4-(4-Chloro-phenyl)-thiazole-2-carboxylic Acid 3,5-bis-trifluoromethyl-benzylamide] in this work. An inhibition at 6 µg/mL of 58% was found for CCCC(=O)Oc1ccc(CC(=O)Nc2nc(-c3ccc(Cl)cc3)cs2)cc1N [Compound 31, Butyric acid 2-amino-4-{[4-(4-chloro-phenyl)-thiazol-2-ylcarbamoyl]-methyl}-phenyl ester] in this work. An inhibition at 6 µg/mL of 0% was found for CCCC(=O)Oc1ccc(C(=O)Nc2nc(-c3ccc(Cl)cc3)cs2)cc1OC [Compound 24, Butyric acid 4-[4-(4-chloro-phenyl)-thiazol-2-ylcarbamoyl]-2-methoxy-phenyl ester] in this work. An inhibition at 6 µg/mL of 79% was found for O=C(NCc1cc(F)c(F)c(F)c1)c1nc(-c2ccc(Cl)cc2)cs1 [Compound 42, 4-(4-Chloro-phenyl)-thiazole-2-carboxylic acid 3,4,5-trifluoro-benzylamide] in this work. An inhibition at 6 µg/mL of 44% was found for O=C(NCc1ccc(F)c(C(F)(F)F)c1)c1nc(-c2ccc(Cl)cc2)cs1 [Compound 53, 4-(4-Chloro-phenyl)-thiazole-2-carboxylic Acid 4-fluoro-3-trifluoromethyl-benzylamide] in this work. An inhibition at 6 µg/mL of 26% was found for O=C(C=Cc1ccc2c(c1)OCO2)Nc1nc(-c2ccc(Cl)cc2)cs1 [Compound 21, 3-Benzo[1,3]dioxol-5-yl-N-[4-(4-chloro-phenyl)-thiazol-2-yl]-acrylamide] in this work. An inhibition at 6 µg/mL of 70% was found for Fc1ccc(F)c(OCNc2nc(-c3ccc(Cl)cc3)cs2)c1 [Compound 78, [4-(4-Chloro-phenyl)-thiazol-2-yl]-(2,5-difluoro-phenoxymethyl)-amine] in this work. An inhibition at 6 µg/mL of 0% was found for O=C(NCCc1ccncc1)c1nc(-c2ccc(Cl)cc2)cs1 [Compound 61, 4-(4-Chloro-phenyl)-thiazole-2-carboxylic Acid (2-pyridin-4-yl-ethyl)-amide] in this work. An inhibition at 6 µg/mL of 66% was found for O=C(Nc1nc(-c2ccc(Cl)cc2)cs1)c1cccc(F)c1 [Compound 65, N-[4-(4-Chloro-phenyl)-thiazol-2-yl]-3-fluoro-benzamide] in this work. An inhibition at 6 µg/mL of 41% was found for O=C(Nc1nc(-c2ccc(Cl)cc2)cs1)c1ccc(F)cc1 [Compound 67, N-[4-(4-Chloro-phenyl)-thiazol-2-yl]-4-fluoro-benzamide] in this work. An inhibition at 6 µg/mL of 55% was found for O=C(Nc1nc(-c2ccc(Cl)cc2)cs1)C(Cl)c1ccccc1 (stereo not shown) [Compound 69, 2-Chloro-N-[4-(4-chloro-phenyl)-thiazol-2-yl]-2-phenyl-acetamide] in this work. An inhibition at 6 µg/mL of 75% was found for O=C(NCc1ccc(F)cc1Cl)c1nc(-c2ccc(Cl)cc2)cs1 [Compound 38, 4-(4-Chloro-phenyl)-thiazole-2-carboxylic acid 2-chloro-4-fluoro-benzylamide] in this work. An inhibition at 6 µg/mL of 56% was found for O=C(NCc1ccc(F)c(F)c1)c1nc(-c2ccc(Cl)cc2)cs1 [Compound 40, 4-(4-Chloro-phenyl)-thiazole-2-carboxylic acid 3,4-difluoro-benzylamide] in this work. An inhibition at 6 µg/mL of 85% was found for Fc1cc(F)cc(OCNc2nc(-c3ccc(Cl)cc3)cs2)c1 [Compound 77, [4-(4-Chloro-phenyl)-thiazol-2-yl]-(3,5-difluoro-phenoxymethyl)-amine] in this work.
